Holding throughout (type): cell-based
The test system of one test is MiaPaCa-2 (pancreas). The experiment in a line: in vitro cytotoxicity assay (Cell-Titer-Glo), MiaPaCa-2. As to conditions: Homo sapiens, MIA PaCa-2, 96 h; Table 9; 4 days; read-out: IC50 MiaPaCa-2. The protocol: (§1) To evaluate cell killing of cancer cell lines, an in vitro cytotoxicity assay was performed. The tumor cell lines used were purchased from the American Type Culture Collection, and are identified as follows: Panc-1 (pancreas), MiaPaCa-2 (pancreas), MCF-7 (breast), HT-29 (colon), U2-OS (osteosarcoma), OVCAR-3 (ovary), HepG2 (hepatocellular carcinoma) and TT (medullary thyroid). The assay utilized the Cell-Titer-Glo Non-Radioactive Cell Proliferation Assay (Promega Corp., Madison, Wis.). First the cells were cultured in RPMI 1640 medium (Cat# 21870-076, Invitrogen Corporation) supplemented with 300 mg/L L-glutamine, 100 units/ml penicillin, 100 μg/ml streptomycin and 10% fetal bovine serum. All the cell lines were incubated in a humidified incubator at 37° C. with 5% CO2 atmosphere.
(§2) Cells were plated at a density of 2000 to 10000 cells per well, depending on their growth rate, in 0.09 mL medium on day 0 in 96-well Microlite TCT microtiter plates (7418, Thermo Labsystems, Franklin, Mass.). On day 1, 10 μL of serial dilutions of the individual compounds were added to the plates in replicates of 3. After incubation for 4 days at 37° C. in a humidified incubator, the cells were lysed in the Cell-Titer-Glo reagent, which also contains luciferase enzyme. The luciferase reaction utilizes ATP released from lysed cells to produce light, the intensity of which is linearly related to the amount of ATP. Thus, the amount of light produced is a reflection of the number of cells remaining in the well after drug treatment. This luminescence was measured using a Luminoskan luminometer (Thermo Electron Corp., Vantaa, Finland) Data were expressed as the percentage of survival of control cells calculated from the luminescence corrected for background. The surviving percent of cells was determined by dividing the mean luminescence values of the treated wells by the mean luminescence values of the control and multiplying by 100.
as §1, with “Briefly,” for “To evaluate cell killing of cancer cell lines, an in vitro cytotoxicity assay was performed. The”, “thyroid), PC-3 (prostate) and A549 (lung).” for “thyroid).”
as §1, with “carcinoma), PC-3 (prostate),” for “carcinoma)”, “A549 (lung).” for “TT (medullary thyroid).”
(§3) Cells were plated at a density of 2000 to 10000 cells per well, depending on their growth rate, in 0.09 mL medium on day 0 in 96-well Microlite TCT microtiter plates (#7418, Thermo Labsystems, Franklin, Mass.). On day 1, 10 μL of serial dilutions of the individual compounds were added to the plates in replicates of 3. After incubation for 4 days at 37° C. in a humidified incubator, the cells were lysed in the Cell-Titer-Glo reagent, which also contains luciferase enzyme. […]

The subject of the next test is U2-OS (osteosarcoma). The test is described as follows: in vitro cytotoxicity assay (Cell-Titer-Glo), U2-OS. As to conditions: Homo sapiens, U2OS, 96 h; Table 9; 4 days; read-out: IC50 U2-OS. As for the experimental part:
as §1, §2
as §1, with “Briefly,” for “To evaluate cell killing of cancer cell lines, an in vitro cytotoxicity assay was performed. The”, “thyroid), PC-3 (prostate) and A549 (lung).” for “thyroid).”
as §1, with “carcinoma), PC-3 (prostate),” for “carcinoma)”, “A549 (lung).” for “TT (medullary thyroid).”
as §3

In the next test the test system is OVCAR-3 (ovary). The test is described as follows: in vitro cytotoxicity assay (Cell-Titer-Glo), OVCAR-3. Conditions: Homo sapiens, OVCAR-3, 96 h; Table 9; 4 days; read-out: IC50 OVCAR-3. As for the experimental part: as §1, §2
as §1, with “Briefly,” for “To evaluate cell killing of cancer cell lines, an in vitro cytotoxicity assay was performed. The”, “thyroid), PC-3 (prostate) and A549 (lung).” for “thyroid).”
as §1, with “carcinoma), PC-3 (prostate),” for “carcinoma)”, “A549 (lung).” for “TT (medullary thyroid).”
as §3

Test [1] concerns HepG2 (hepatocellular carcinoma). The experiment in a line: in vitro cytotoxicity assay (Cell-Titer-Glo), HepG2. Conditions: Homo sapiens, HepG2, 96 h; Table 9; 4 days; read-out: IC50 HepG2. The protocol:
as §1, §2
as §1, with “Briefly,” for “To evaluate cell killing of cancer cell lines, an in vitro cytotoxicity assay was performed. The”, “thyroid), PC-3 (prostate) and A549 (lung).” for “thyroid).”
as §1, with “carcinoma), PC-3 (prostate),” for “carcinoma)”, “A549 (lung).” for “TT (medullary thyroid).”
as §3

In a further test the test system is A549 (lung). The test is described as follows: in vitro cytotoxicity assay (Cell-Titer-Glo), A549. Conditions: Homo sapiens, A549, 96 h; Table 9; 4 days; read-out: IC50 A549. As for the experimental part: as §1, with “Briefly,” for “To evaluate cell killing of cancer cell lines, an in vitro cytotoxicity assay was performed. The”, “thyroid), PC-3 (prostate) and A549 (lung).” for “thyroid).”
as §2
as §1, with “carcinoma), PC-3 (prostate),” for “carcinoma)”, “A549 (lung).” for “TT (medullary thyroid).”
as §2, with “(#7418,” for “(7418,”, “100. […]” for “100.”

As for `Cc1ccc(NS(=O)(=O)c2ccc(NC(=S)N3CCN(c4ncnc5[nH]c6cc(Cl)c(N7CCOCC7)cc6c45)CC3)cc2)cc1` [Compound 2-9, 4-(7-chloro-6-morpholino-9H-pyrimido[4,5-b]indol-4-yl)-N-(4-(N-tolylsulfamoyl)phenyl)piperazine-1-carbothioamide], the IC50 (in general, the concentration that gives 50% inhibition) in the test with MiaPaCa-2 (pancreas) came out at 26.9 µM; in the test with U2-OS (osteosarcoma), 8.56 µM; in the test on OVCAR-3 (ovary), 7.61 µM; in test [1], 25.6 µM; in the test on A549 (lung), 19.4 µM.

(Values after patent publication US20080207632A1, “PROTEIN KINASE INHIBITORS” (SUPERGEN, INC., priority 2006, published 2008).)
